The NIST ThermoML archive (doi:10.1007/s10765-013-1469-0)

Columns and labels:
[1] = 101 kPa, Liquid; for viscosity: Concentric cylinders viscometry; for mass density: Vibrating tube method
[2] = refractive index (Na D-line) (dimensionless); conditions: 101.33 kPa, Liquid, Standard Abbe refractometry
[3] = xn = mol fraction of the nth substance listed; conditions: 101 kPa, Liquid, x1 = 1; for viscosity: Concentric cylinders viscometry; for mass density: Vibrating tube method
[4] = refractive index (Na D-line) (dimensionless); xn = mol fraction of the nth substance listed; conditions: 101 kPa, Liquid, Standard Abbe refractometry, x1 = 1

COCCOCCOCCOCCOC [2,5,8,11,14-pentaoxapentadecane]
Conditions	mass density, [1] [kg/m3]	refractive index, [2]	viscosity, [1] [mPa·s]
288.15 K	1015.63	1.4345	4.341
293.15 K	1011	1.43238	3.834
298.15 K	1006.36	1.43027	3.38
303.15 K	1001.73	1.42815	3.004
308.15 K	997.104	1.42603	2.691
313.15 K	992.481	1.42394	2.426
318.15 K	987.859	1.42183	2.199
323.15 K	983.234	1.41973	2.006
328.15 K	978.613	1.41765	1.838
333.15 K	973.989	1.41553	1.691

CCCCO [butan-1-ol]
Conditions	mass density, [1] [kg/m3]	refractive index, [2]	viscosity, [1] [mPa·s]
288.15 K	813.407	1.40131	3.356
293.15 K	809.621	1.39932	2.965
298.15 K	805.804	1.39729	2.593
303.15 K	801.964	1.39529	2.277
308.15 K	798.091	1.39317	2.008
313.15 K	794.181	1.39104	1.78
318.15 K	790.229	1.38893	1.583
323.15 K	786.228	1.38683	1.412
328.15 K	782.172	1.38474	1.264
333.15 K	778.056	1.38237	1.132

CCCCO [butan-1-ol] + COCCOCCOCCOCCOC
Conditions	mass density, [3] [kg/m3]	refractive index, [4]	viscosity, [3] [mPa·s]
288.15 K	813.407	1.40131	3.356
293.15 K	809.621	1.39932	2.965
298.15 K	805.804	1.39729	2.593
303.15 K	801.964	1.39529	2.277
308.15 K	798.091	1.39317	2.008
313.15 K	794.181	1.39104	1.78
318.15 K	790.229	1.38893	1.583
323.15 K	786.228	1.38683	1.412
328.15 K	782.172	1.38474	1.264
333.15 K	778.056	1.38237	1.132
